According to the NIST ThermoML archive (doi:10.1016/j.jct.2011.01.014):

Test: xn = mol fraction of the nth substance listed
Details: 101 kPa, Liquid; for speed of sound: sound velocity cell; for mass density: Vibrating tube method

CC(=O)[O-].[NH3+]CCO [2-hydroxyethylammonium acetate] + CO
Details | mass density, 308.15 K [kg/m3] | mass density, 310.65 K [kg/m3] | mass density, 313.15 K [kg/m3] | mass density, 315.65 K [kg/m3] | speed of sound, 305.65 K [m/s] | speed of sound, 308.15 K [m/s] | speed of sound, 310.65 K [m/s] | speed of sound, 313.15 K [m/s]
x1 = 0.0492 | 832.793 | 830.575 | 828.348 | 826.113 | 1161.1 | 1153.3 | 1145.6 | 1137.8
x1 = 0.0951 | 875.068 | 872.975 | 870.876 | 868.768 | 1224.5 | 1217 | 1209.6 | 1202.1
x1 = 0.1987 | 943.548 | 941.654 | 939.757 | 937.855 | 1341 | 1334 | 1327 | 1320
x1 = 0.29 | 988.497 | 986.73 | 984.961 | 983.188 | 1429.3 | 1422.7 | 1416 | 1409.3
x1 = 0.3786 | 1021.52 | 1019.84 | 1018.17 | 1016.49 | 1500.3 | 1494 | 1487.6 | 1481.3
x1 = 0.4825 | 1053.6 | 1052.01 | 1050.42 | 1048.81 | 1575.7 | 1569.6 | 1563.5 | 1557.5
x1 = 0.6007 | 1081.57 | 1080.07 | 1078.57 | – | 1645.1 | 1639.2 | 1633.3 | 1627.4
x1 = 0.6711 | 1095.97 | 1094.53 | 1093.07 | – | 1681.8 | 1675.9 | 1670.1 | 1664.3
x1 = 0.7797 | 1114.95 | 1113.51 | 1112.05 | – | 1700.1 | 1694.5 | 1689 | 1683.4
x1 = 0.8297 | 1122.74 | 1121.32 | 1119.91 | – | 1753.7 | 1748 | 1742.3 | 1736.7
x1 = 0.9328 | 1136.52 | 1135.08 | 1133.64 | – | 1750.5 | 1744.9 | 1739.3 | 1733.8
x1 = 1 | 1143.39 | 1141.96 | 1140.55 | – | 1773.4 | 1767.9 | 1762.5 | 1757.2
